The source of these data is patent US20220000841A1, “INHIBITORS OF METALLO-BETA-LACTAMASES” (CENTRE NATIONAL DE LA RECHERCHE SCIENTIFIQUE, priority 2018, published 2022).

Structures are written as SMILES. Where two headings read alike, the source gives them in different places.

For one series, the target named is VIM-2 (Escherichia coli, UniProt Q5U7L7). The series is described as follows: Enzymatic assay for determination of inhibition constants, reporter substrate method, purified VIM-2.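 Further: purified VIM-2 hydrolysing a reporter substrate (imipenem, meropenem, cefotaxime or nitrocefin), reaction rate read as absorbance change, HEPES 50 mM at pH 7.5.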 Type of series: biochemical.
The target in the next series is VIM-4 (Pseudomonas aeruginosa, UniProt Q8KRJ3). The series is described as follows: Enzymatic assay for determination of inhibition constants, reporter substrate method, purified VIM-4.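 Further: purified VIM-4 (1-70 nM) in 50 mM HEPES pH 7.5, reporter substrate hydrolysis rate tracked by absorbance change (nitrocefin 482 nm, imipenem or meropenem 300 nm, cefotaxime 260 nm).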 Type of series: biochemical. The note with it: at 100 μM (maximal tested concentration).
Another series has as its target NDM-1 (Klebsiella pneumoniae, UniProt C7C422). The series can be described thus: Enzymatic assay for determination of inhibition constants, reporter substrate method, purified NDM-1.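 On all read-outs here: purified enzyme activity followed as absorbance change from reporter substrate hydrolysis on a UV-Vis spectrophotometer or plate reader, 50 mM HEPES pH 7.5.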 The note with it: for Ki: isolated MBL, competitive inhibition model. Type of series: biochemical.
Another series concerns the target IMP-1 (Serratia marcescens, UniProt P52699). The series can be described thus: Enzymatic assay for determination of inhibition constants, reporter substrate method, purified IMP-1.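 On all read-outs here: purified IMP-1 (1-70 nM) hydrolysing a reporter substrate, initial rates followed as absorbance change at 260, 300 or 482 nm in 50 mM HEPES pH 7.5.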 It counts as biochemical. Particulars: for Ki: isolated MBL, competitive inhibition model; for % inhibition IMP-1: at 200 μM (maximal tested concentration).
The next series deals with VIM-1 (Pseudomonas aeruginosa, UniProt A0A0F7KYQ8). The series can be described thus: Enzymatic assay for determination of inhibition constants, reporter substrate method, purified VIM-1.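 On all read-outs here: initial hydrolysis rates of a reporter β-lactam (imipenem, meropenem, cefotaxime or nitrocefin) followed by absorbance change, purified enzyme at 1–70 nM in 50 mM HEPES pH 7.5.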 It counts as biochemical. The note with it: for Ki: isolated MBL, competitive inhibition model.
[1] abbreviates: isolated MBL, competitive inhibition model, read-out: Ki VIM-2.
Setting [2] is: at 200 μM (maximal tested concentration).
The mark [3] stands for this setting: at 100 μM (maximal tested concentration).

Chain of IMP-1 (P52699 19-246, looked up, species assumed): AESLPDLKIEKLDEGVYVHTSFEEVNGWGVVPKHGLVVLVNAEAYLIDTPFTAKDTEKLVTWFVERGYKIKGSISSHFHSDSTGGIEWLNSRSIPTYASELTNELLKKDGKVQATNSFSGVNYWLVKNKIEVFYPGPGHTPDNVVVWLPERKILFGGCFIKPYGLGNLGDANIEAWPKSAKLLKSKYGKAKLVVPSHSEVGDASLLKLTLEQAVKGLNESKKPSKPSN
Chain of NDM-1 (C7C422 29-270, looked up, species assumed): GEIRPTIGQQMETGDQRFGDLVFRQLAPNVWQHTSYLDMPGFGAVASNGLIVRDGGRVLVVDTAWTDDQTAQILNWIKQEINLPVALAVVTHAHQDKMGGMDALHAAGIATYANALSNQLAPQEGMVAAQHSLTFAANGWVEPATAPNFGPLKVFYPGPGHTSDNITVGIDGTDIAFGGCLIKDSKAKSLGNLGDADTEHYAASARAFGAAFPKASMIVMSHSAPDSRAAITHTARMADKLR
Procedure for IMP-1: (§1) The reaction rate was measured as the variation of absorbance observed upon substrate hydrolysis in a UV-Vis spectrophotometer or microplate reader at a wavelength of 300 nm (imipenem, meropenem), 260 nm (cefotaxime) or 482 nm (nitrocefin) in 50 mM HEPES buffer (pH 7.5) and in the presence of a purified MBL enzyme (such as VIM-1, VIM-2, VIM-4, NDM-1 and IMP-1, at a final concentration ranging 1-70 nM).
(§2) The inhibition constants (Ki) were determined on the basis of a model of competitive inhibition by analyzing the dependence of the ratio v0/vi (v0, hydrolysis velocity in the absence of inhibitor; vi, hydrolysis velocity in the presence of inhibitor) as a function of [I] as already described [Docquier J. D., Lamotte-Brasseur J., Galleni M., Amicosante G., Frère J. M., Rossolini G. M. (2003) J. Antimicrob. […] The slope of the plot of v0/vi vs [I], which corresponds to Km^S/(Km^S+[S])Ki (where Km^S is the Km value of the reporter substrate and [S] its concentration in the reaction mixture) and allowed the calculation of the Ki value. Alternatively, a Dixon plot analysis was carried out, by measuring the initial hydrolysis rates in the presence of variable concentrations of inhibitor and substrate.
Procedure for NDM-1: as §1, §2
Procedure for VIM-1: as §1, §2
Procedure for VIM-2: as §1, §2
Procedure for VIM-4: as §1, §2

`O=C(O)c1ccccc1CCn1c(-c2ccc(Cl)s2)n[nH]c1=S` [Compound 27, 2-{2-[3-(5-chlorothiophen-2-yl)-5-sulfanylidene-4,5-dihydro-1H-1,2,4-triazol-4-yl]ethyl}benzoic acid]: the melting point fell in the range of 240 to 241 °C. Further, on VIM-2 (setting [1]), the Ki fell in the range of 1 to 10 µM. Besides, the “% inhibition VIM-4” value at VIM-4 stood at 85% at 100 μM. Further, the inhibitory constant (Ki) at NDM-1 is > 100 µM. In addition, at IMP-1, the inhibitory constant (Ki) is > 100 µM.
Take `Cc1ccccc1-c1n[nH]c(=S)n1CCc1ccccc1` [Compound 6, 3-(2-methylphenyl)-4-(2-phenylethyl)-4,5-dihydro-1H-1,2,4-triazole-5-thione]: the “% inhibition VIM-2” value at VIM-2 (setting [2]) is 60% at 200 μM. In addition, at VIM-4, the “% inhibition VIM-4” value was found to be 50% at 100 μM. On NDM-1, the Ki was > 100 µM. In addition, at IMP-1, the “% inhibition IMP-1” value amounted to 80% at 200 μM. The “% inhibition VIM-1” value on VIM-1 (setting [2]) is recorded as 60% at 200 μM.
`O=C(O)c1ccccc1CCn1c(C23CC4CC(CC(C4)C2)C3)n[nH]c1=S` [Compound 35, 2-{2-[3-(adamantan-1-yl)-5-sulfanylidene-4,5-dihydro-1H-1,2,4-triazol-4-yl]ethyl}benzoic acid]: the melting point is > 250 °C. The inhibition constant (Ki) on VIM-2 (setting [1]) lay in the range of 1 to 10 µM. Further, the “% inhibition VIM-4” value on VIM-4 is given as 55% at 100 μM. The Ki on NDM-1 was > 100 µM. Further, the Ki at IMP-1 is > 100 µM.
`FC(F)(F)c1cc(SCCn2c(-c3ccccc3)n[nH]c2=S)c2ccccc2n1` [Compound 28, 3-phenyl-4-(2-{[2-(trifluoromethyl)quinolin-4-yl]sulfanyl}ethyl)-4,5-dihydro-1H-1,2,4-triazole-5-thione] showed a melting point of 184 to 185 °C. Moreover, the Ki on VIM-2 (setting [1]) is > 100 µM. Further, the inhibition constant Ki on NDM-1 lay within 10 to 100 µM. Further, at IMP-1, the Ki was > 100 µM.
In turn, `O=C(O)C1CCC(Cn2c(-c3ccccc3)n[nH]c2=S)CC1` (stereo not drawn) [Compound 34, 4-[(3-phenyl-5-sulfanylidene-4,5-dihydro-1H-1,2,4-triazol-4-yl)methyl]cyclohexane-1-carboxylic acid] had a melting point of 207 to 208 °C. The “% inhibition VIM-2” value at VIM-2 (setting [2]) was found to be 75% at 200 μM. The “% inhibition VIM-4” value on VIM-4 is on record as 90% at 100 μM. Also, the Ki on NDM-1 is > 100 µM. The Ki on IMP-1 was > 100 µM.
As for `Oc1ccc(CCn2c(-c3ccccc3)n[nH]c2=S)cc1` [Compound 31, 4-[2-(4-hydroxyphenyl)ethyl]-3-phenyl-4,5-dihydro-1H-1,2,4-triazole-5-thione], the Ki on VIM-2 (setting [1]) is 1 to 10 µM; at NDM-1, 10 to 100 µM; on IMP-1, 10 to 100 µM; at VIM-1, 1 to 10 µM. Further, the “% inhibition VIM-4” value at VIM-4 came out at 70% at 100 μM.
Compound `CCCCCCn1c(-c2ccccc2)n[nH]c1=S` [Compound 26, 4-hexyl-3-phenyl-4,5-dihydro-1H-1,2,4-triazole-5-thione] gave a melting point of 98 to 99 °C. The Ki on VIM-2 (setting [1]) fell in the range of 1 to 10 µM. Further, on VIM-4, the “% inhibition VIM-4” value came to 85% at 100 μM. Also, on NDM-1, the Ki is > 100 µM. Also, at IMP-1, the Ki is > 100 µM.
In the case of `COc1ccc(O)c(-c2n[nH]c(=S)n2CCCCC(=O)O)c1` [Compound 29, 5-[3-(2-hydroxy-5-methoxyphenyl)-5-sulfanylidene-4,5-dihydro-1H-1,2,4-triazol-4-yl]pentanoic acid], the melting point is 155 to 156 °C. Moreover, the “% inhibition VIM-2” value at VIM-2 (setting [2]) is reported as 60% at 200 μM. In addition, the “% inhibition VIM-4” value at VIM-4 turned out to be 90% at 100 μM. The Ki at NDM-1 was > 100 µM. Besides, the Ki at IMP-1 was > 100 µM.
`O=C(O)C1CCCC(n2c(-c3ccccc3)n[nH]c2=S)C1` (stereo not drawn) [Compound 47, 3-(3-Phenyl-5-sulfanylidene-4,5-dihydro-1H-1,2,4-triazol-4-yl)cyclohexane-1-carboxylic acid] returned a melting point of 234 to 235 °C. In addition, the “% inhibition VIM-2” value on VIM-2 (setting [3]) is reported as 60% at 100 μM. On VIM-4, the “% inhibition VIM-4” value is 70% at 100 μM. At NDM-1, the Ki was > 100 µM. The Ki on IMP-1 was > 100 µM.
`CC(C)(C)OC(=O)NC(CCCn1c(-c2ccccc2)n[nH]c1=S)C(=O)O` (stereo not drawn) [Compound 25, 2-{[(tert-butoxy)carbonyl]amino}-5-(3-phenyl-5-sulfanylidene-4,5-dihydro-1H-1,2,4-triazol-4-yl)pentanoic acid] yielded a melting point of 105 to 106 °C. At VIM-2 (setting [1]), the Ki lay within 1 to 10 µM. Besides, at VIM-4, the “% inhibition VIM-4” value was 85% at 100 μM. Further, the Ki on NDM-1 was > 100 µM. For the same compound, at IMP-1, the Ki was > 100 µM.
In the case of `S=c1[nH]nc(-c2ccccc2)n1CCc1ccccc1` [Compound 11, 3-phenyl-4-(2-phenylethyl)-4,5-dihydro-1H-1,2,4-triazole-5-thione], the values for the Ki at VIM-2 (setting [1]), on NDM-1 and at IMP-1 were > 100 µM, > 100 µM and 1 to 10 µM, respectively. For the same compound, the “% inhibition VIM-4” value at VIM-4 is 75% at 100 μM. Besides, the “% inhibition VIM-1” value on VIM-1 (setting [2]) is reported as 75% at 200 μM.
For the compound `O=C(O)CC1(Cn2c(-c3ccccc3)n[nH]c2=S)CCCCC1` [Compound 17, 2-{1-[(3-phenyl-5-sulfanylidene-4,5-dihydro-1H-1,2,4-triazol-4-yl)methyl]cyclohexyl}acetic acid], the melting point was in the range of 80 to 81 °C. The Ki at VIM-2 (setting [1]) was 1 to 10 µM. Besides, the “% inhibition VIM-4” value at VIM-4 turned out to be 60% at 100 μM. The Ki on NDM-1 was > 100 µM. Further, the Ki on IMP-1 is > 100 µM.
In the case of `Cc1nnsc1-c1n[nH]c(=S)n1CCc1ccccc1C(=O)O` [Compound 23, 2-{2-[3-(4-methyl-1,2,3-thiadiazol-5-yl)-5-sulfanylidene-4,5-dihydro-1H-1,2,4-triazol-4-yl]ethyl}benzoic acid], the melting point lay in the range of 195 to 196 °C. In addition, the Ki at VIM-2 (setting [1]) was > 100 µM. In addition, the Ki on NDM-1 was > 100 µM. Further, the “% inhibition IMP-1” value at IMP-1 was 95% at 200 μM.
The compound `O=C(O)c1ccccc1CNn1c(-c2ccc3ccccc3c2)n[nH]c1=S` [Compound 16, 2-({[3-(naphthalen-2-yl)-5-sulfanylidene-4,5-dihydro-1H-1,2,4-triazol-4-yl]amino}methyl)benzoic acid] registered a melting point of 213 to 214 °C. Also, on VIM-2 (setting [1]), the Ki was 1 to 10 µM. The inhibition constant (Ki) at NDM-1 was > 100 µM. On IMP-1, the Ki is > 100 µM. Further, the Ki at VIM-1 is > 100 µM.
`O=C(O)CCCCn1c(-c2ccc3ccccc3c2)n[nH]c1=S` [Compound 30, 5-[3-(naphthalen-2-yl)-5-sulfanylidene-4,5-dihydro-1H-1,2,4-triazol-4-yl]pentanoic acid] gave a melting point of 170 to 171 °C. The Ki on VIM-2 (setting [1]) was 1 to 10 µM. For the same compound, the “% inhibition VIM-4” value on VIM-4 worked out at 80% at 100 μM. On NDM-1, the Ki is > 100 µM. Further, the “% inhibition IMP-1” value on IMP-1 stood at 60% at 200 μM.
Turning to `S=c1[nH]nc(-c2ccccc2)n1CCCSc1ccccc1` [Compound 79, 5-Phenyl-4-[3-(phenylthio)propyl]-2,4-dihydro-1,2,4-triazole-3-thione], the “% inhibition VIM-2” value at VIM-2 (setting [3]) stood at 72% at 100 μM. Besides, the “% inhibition VIM-4” value at VIM-4 stood at 71% at 100 μM. Besides, the Ki on NDM-1 and at IMP-1 was > 100 µM throughout. Further, the “% inhibition VIM-1” value at VIM-1 (setting [3]) was 82% at 100 μM.
For the compound `[N-]=[N+]=NCCn1c(-c2ccccc2)n[nH]c1=S` [Compound 49, 4-(2-Azidoethyl)-3-phenyl-4,5-dihydro-1H-1,2,4-triazole-5-thione], the melting point is 108 to 109 °C. The inhibition constant Ki at VIM-2 (setting [1]) is > 100 µM. The Ki on NDM-1 is > 100 µM. The “% inhibition IMP-1” value at IMP-1 is given as 90% at 200 μM.
In the case of `COc1cccc(-c2n[nH]c(=S)n2CCCC(=O)O)c1` [Compound 24, 4-[3-(3-methoxyphenyl)-5-sulfanylidene-4,5-dihydro-1H-1,2,4-triazol-4-yl]butanoic acid], the melting point was 159 to 160 °C. Also, the “% inhibition VIM-2” value at VIM-2 (setting [2]) is 70% at 200 μM. Also, the “% inhibition VIM-4” value on VIM-4 was 85% at 100 μM. In addition, the Ki on NDM-1 was > 100 µM. Also, the Ki on IMP-1 is > 100 µM.
`O=C(O)CCCn1c(-c2ccc3ccccc3n2)n[nH]c1=S` [Compound 50, 4-[3-(Quinolin-2-yl)-5-sulfanylidene-4,5-dihydro-1H-1,2,4-triazol-4-yl]butanoic acid] had a melting point of 238 to 239 °C. The “% inhibition VIM-2” value on VIM-2 (setting [2]) turned out to be 80% at 200 μM. The “% inhibition VIM-4” value at VIM-4 came out at 85% at 100 μM. For the same compound, the “% inhibition NDM-1” value at NDM-1 (setting [2]) was 50% at 200 μM. The Ki at IMP-1 was > 100 µM.
On to `O=C(O)CCCCCn1c(-c2ccccc2)n[nH]c1=S` [Compound 45, 6-(3-Phenyl-5-sulfanylidene-4,5-dihydro-1H-1,2,4-triazol-4-yl)hexanoic acid], for which the melting point was in the range of 136 to 137 °C. Also, the Ki at VIM-2 (setting [1]) was < 1 µM. Further, the “% inhibition VIM-4” value on VIM-4 was determined as 85% at 100 μM. For the same compound, at NDM-1 (setting [3]), the “% inhibition NDM-1” value is given as 55% at 100 μM. Moreover, the inhibitory constant (Ki) at IMP-1 is > 100 µM.
Turning to `O=C(O)c1ccccc1CCn1c(-c2ccccc2)n[nH]c1=S` [Compound 1, 2-[2-(3-phenyl-5-sulfanylidene-4,5-dihydro-1H-1,2,4-triazol-4-yl)ethyl]benzoic acid], the melting point was in the range of 220 to 221 °C. On VIM-2 (as listed in Table 2, read-out: Ki on VIM-2), the Ki was < 1 µM. Further, at VIM-2 (setting [1]), the inhibition constant (Ki) was < 1 µM. On NDM-1, the Ki is > 100 µM. Besides, the Ki at IMP-1 is > 100 µM. For the same compound, the Ki at VIM-1 is > 100 µM.
Turning to `CCCCn1c(-c2ccccc2)n[nH]c1=S` [Compound 32, 4-butyl-3-phenyl-4,5-dihydro-1H-1,2,4-triazole-5-thione], the melting point fell in the range of 128 to 129 °C. Further, the Ki on VIM-2 (setting [1]) fell in the range of 1 to 10 µM. Further, the “% inhibition VIM-4” value at VIM-4 is listed as 75% at 100 μM. For the same compound, the Ki on NDM-1 is > 100 µM. Also, the inhibition constant (Ki) on IMP-1 was in the range of 10 to 100 µM.
